Key:
[1] = Plasma pharmacokinetics in patients, single and multiple doses; type: in vivo, human; details: for Mean (SD) Robs (observed accumulation ratio): multiple doses, AUCτ day 15/AUC0–24 day 1; for Mean (SD) Rpred (predicted accumulation ratio): AUC0–∞/AUC0–24 day 1
Procedure: Pharmacokinetic parameters calculated after multiple doses included AUC0-t, Cmax, Tmax, and t½, and observed accumulation ratio (Robs). […] Pharmacodynamics was assessed by VEGFR-2/KDR inhibitory activity in response to CEP-11981 treatment. […] The venous blood samples for pharmacokinetic-pharmacodynamic analysis were collected on days 1 and 15 of dosing during cycle 1 immediately before dose administration and at 1 h postdose, and on day 43. At each draw, 2 samples were obtained in 6-mL sodium heparinized vacutainers. Plasma was obtained and stored at −70 °C until shipment to the sponsor for analysis.

[2] = test system: advanced, relapsed/refractory solid tumors; assay: Tumor response (RECIST) in phase I patients; type: in vivo, human
From the text: The primary measures were MTD and DLTs. MTD was defined as the highest dose at which one-third or fewer of patients in a cohort experienced a DLT, which included grade ≥ 2 proteinuria, grade ≥ 3 nonhematologic toxicity (excluding hypertension and pain), grade ≥ 3 thrombocytopenia with bleeding, or grade 4 hematologic toxicity that was not clearly due to progressive cancer. Secondary measures included the pharmacokinetics of CEP-11981 after a single dose and multiple doses, the pharmacokinetic-pharmacodynamic profile of CEP-11981, safety, and preliminary efficacy. The efficacy endpoint was the proportion of patients who achieved complete or partial response on study (minimum of 6 weeks) according to Response Evaluation Criteria in Solid Tumors (RECIST) guidelines.

proto-oncogene c-SRC = test system: proto-oncogene c-SRC; parameters: method as in PMID 22148921; details: cited from earlier work
[3] = multiple doses (day 15, cycle 1), oral once daily, 3.0 mg/m^2, n = 3
[4] = multiple doses (day 15, cycle 1), oral once daily, 4.2 mg/m^2, n = 3
[5] = multiple doses (day 15, cycle 1), oral once daily, 5.9 mg/m^2, n = 5
[6] = multiple doses (day 15, cycle 1), oral once daily, 11.8 mg/m^2, n = 3
[7] = multiple doses (day 15, cycle 1), oral once daily, 19.7 mg/m^2, n = 3
[8] = multiple doses (day 15, cycle 1), oral once daily, 29.6 mg/m^2, n = 4
[9] = multiple doses (day 15, cycle 1), oral once daily, 41.4 mg/m^2, n = 3
[10] = multiple doses (day 15, cycle 1), oral once daily, 55.0 mg/m^2, n = 4
[11] = multiple doses (day 15, cycle 1), oral once daily, 73.0 mg/m^2, n = 3
[12] = multiple doses (day 15, cycle 1), oral once daily, 126.6 mg/m^2, n = 2
[13] = single dose, oral, 3.0 mg/m^2, n = 3
[14] = single dose, oral, 4.2 mg/m^2, n = 3
[15] = single dose, oral, 5.9 mg/m^2, n = 5
[16] = single dose, oral, 11.8 mg/m^2, n = 3
[17] = single dose, oral, 19.7 mg/m^2, n = 3
[18] = single dose, oral, 29.6 mg/m^2, n = 4
[19] = single dose, oral, 41.4 mg/m^2, n = 3
[20] = single dose, oral, 55.0 mg/m^2, n = 5
[21] = single dose, oral, 73.0 mg/m^2, n = 3
[22] = single dose, oral, 126.6 mg/m^2, n = 2
[23] = of 37 patients evaluated for tumor response

In the case of “11-(2-methylpropyl)-12,13-dihydro-2-methyl-8-(pyrimidin-2-ylamino)-4H-indazolo[5,4-a]pyrrolo[3,4-c]carbazol-4-one [CEP-11981]”, the “Mean (SD) AUC0-24” value ([1]; human, in vivo, po, 97.4 mg/m2) is reported as 5,320.4 (1,459.11) ng•hr/mL, the “Mean (SD) Cmax” value ([1]; human, in vivo, po, 97.4 mg/m2) is reported as 526.4 (185.68) ng/mL and the “Mean (SD) t½” value ([1]; human, in vivo, po, 97.4 mg/m2) is reported as 10.3 (4.59) hr. The “Median (range) Tmax” value ([1]; human, in vivo, po, 97.4 mg/m2) was 4.0 (2.0–6.0) hr, the “Mean (SD) AUCτ” value [1, 3] was 165.3 (82.98) ng•hr/mL and the “Mean (SD) Cmax” value [1, 3] was 16.1 (2.35) ng/mL. The “Mean (SD) t½” value [1, 3] was 8.0 (2.92) hr, the “Median (range) Tmax” value [1, 3] was 2.9 (1.5–4.0) hr and the “Mean (SD) AUCτ” value [1, 4] was 201.7 (46.72) ng•hr/mL. For the same substance, the “Mean (SD) Cmax” value [1, 4] was 24.3 (9.23) ng/mL, the “Mean (SD) t½” value [1, 4] was 9.9 (4.55) hr and the “Median (range) Tmax” value [1, 4] was 3.9 (1.5–4.0) hr. For the same substance, the “Mean (SD) AUCτ” value [1, 5] was 278.0 (69.45) ng•hr/mL, the “Mean (SD) Cmax” value [1, 5] was 32.4 (8.40) ng/mL and the “Mean (SD) t½” value [1, 5] was 6.6 (1.51) hr. For the same substance, the “Median (range) Tmax” value [1, 5] was 3.0 (1.3–6.0) hr, the “Mean (SD) AUCτ” value [1, 6] was 763.7 (128.14) ng•hr/mL and the “Mean (SD) Cmax” value [1, 6] was 98.1 (5.64) ng/mL. The “Mean (SD) t½” value [1, 6] was 12.3 (9.70) hr, the “Median (range) Tmax” value [1, 6] was 2.0 (1.6–2.1) hr and the “Mean (SD) AUCτ” value [1, 7] was 1,102.3 (734.79) ng•hr/mL. The “Mean (SD) Cmax” value [1, 7] was 128.5 (98.34) ng/mL, the “Mean (SD) t½” value [1, 7] was 5.4 (1.20) hr and the “Median (range) Tmax” value [1, 7] was 4.0 (1.5–4.0) hr. The “Mean (SD) AUCτ” value [1, 8] was 2,923.5 (2,939.79) ng•hr/mL, the “Mean (SD) Cmax” value [1, 8] was 218.8 (130.35) ng/mL and the “Mean (SD) t½” value [1, 8] was 8.7 (5.74) hr. For the same substance, the “Median (range) Tmax” value [1, 8] was 4.5 (2.0–8.0) hr, the “Mean (SD) AUCτ” value [1, 9] was 3,256.0 (1,816.44) ng•hr/mL and the “Mean (SD) Cmax” value [1, 9] was 412.6 (93.94) ng/mL. The “Mean (SD) t½” value [1, 9] was 10.3 (6.33) hr, the “Median (range) Tmax” value [1, 9] was 2.1 (1.7–3.1) hr and the “Mean (SD) AUCτ” value [1, 10] was 4,313.3 (1,091.33) ng•hr/mL. The “Mean (SD) Cmax” value [1, 10] was 320.7 (75.09) ng/mL, the “Mean (SD) t½” value [1, 10] was 12.8 (4.32) hr and the “Median (range) Tmax” value [1, 10] was 5.2 (3.0–8.0) hr. The “Mean (SD) AUCτ” value [1, 11] was 9,429.0 (3,993.74) ng•hr/mL, the “Mean (SD) Cmax” value [1, 11] was 713.0 (30.38) ng/mL and the “Mean (SD) t½” value [1, 11] was 13.9 (9.48) hr. The “Median (range) Tmax” value [1, 11] was 3.3 (3.1–3.5) hr, the “Mean (SD) AUCτ” value [1, 12] was 23,565.0 (0) ng•hr/mL and the “Mean (SD) Cmax” value [1, 12] was 1,481.5 (0) ng/mL. The “Mean (SD) t½” value [1, 12] was 14.7 (0) hr, the “Median (range) Tmax” value [1, 12] was 8.0 (8.0–8.0) hr and the “Mean (SD) Robs (observed accumulation ratio)” value ([1]; oral once daily, 3.0 mg/m^2, n = 3) was 1.3 (0.62). The “Mean (SD) Robs (observed accumulation ratio)” value ([1]; oral once daily, 4.2 mg/m^2, n = 3) was 1.8 (0.64), the “Mean (SD) Robs (observed accumulation ratio)” value ([1]; oral once daily, 5.9 mg/m^2, n = 5) was 1.5 (0.59) and the “Mean (SD) Robs (observed accumulation ratio)” value ([1]; oral once daily, 11.8 mg/m^2, n = 3) was 1.5 (0.15). For the same substance, the “Mean (SD) Robs (observed accumulation ratio)” value ([1]; oral once daily, 19.7 mg/m^2, n = 3) was 1.2 (0.29), the “Mean (SD) Robs (observed accumulation ratio)” value ([1]; oral once daily, 29.6 mg/m^2, n = 4) was 1.1 (1.24) and the “Mean (SD) Robs (observed accumulation ratio)” value ([1]; oral once daily, 41.4 mg/m^2, n = 3) was 1.3 (0.46). For the same substance, the “Mean (SD) Robs (observed accumulation ratio)” value ([1]; oral once daily, 55.0 mg/m^2, n = 4) was 1.9 (0.19), the “Mean (SD) Robs (observed accumulation ratio)” value ([1]; oral once daily, 73.0 mg/m^2, n = 3) was 1.9 (0.14) and the “Mean (SD) AUC0-24” value [1, 13] was 127.0 (16.09) ng•hr/mL. For the same substance, the “Mean (SD) Cmax” value [1, 13] was 13.7 (6.14) ng/mL, the “Mean (SD) t½” value [1, 13] was 8.0 (2.82) hr and the “Median (range) Tmax” value [1, 13] was 6.0 (2.0–6.1) hr. For the same substance, the “Mean (SD) Rpred (predicted accumulation ratio)” value [1, 13] was 1.2 (0.15), the “Mean (SD) AUC0-24” value [1, 14] was 119.3 (14.36) ng•hr/mL and the “Mean (SD) Cmax” value [1, 14] was 16.8 (4.88) ng/mL. For the same substance, the “Mean (SD) t½” value [1, 14] was 7.8 (3.69) hr, the “Median (range) Tmax” value [1, 14] was 4.0 (1.0–6.0) hr and the “Mean (SD) Rpred (predicted accumulation ratio)” value [1, 14] was 1.2 (0.12). The “Mean (SD) AUC0-24” value [1, 15] was 194.8 (66.56) ng•hr/mL, the “Mean (SD) Cmax” value [1, 15] was 26.0 (6.53) ng/mL and the “Mean (SD) t½” value [1, 15] was 5.9 (1.06) hr. The “Median (range) Tmax” value [1, 15] was 2.1 (1.5–4.0) hr, the “Mean (SD) Rpred (predicted accumulation ratio)” value [1, 15] was 1.1 (0.05) and the “Mean (SD) AUC0-24” value [1, 16] was 516.7 (125.82) ng•hr/mL. For the same substance, the “Mean (SD) Cmax” value [1, 16] was 84.9 (23.01) ng/mL, the “Mean (SD) t½” value [1, 16] was 6.0 (3.66) hr and the “Median (range) Tmax” value [1, 16] was 1.6 (1.5–3.0) hr. For the same substance, the “Mean (SD) Rpred (predicted accumulation ratio)” value [1, 16] was 1.1 (0.12), the “Mean (SD) AUC0-24” value [1, 17] was 874.0 (357.79) ng•hr/mL and the “Mean (SD) Cmax” value [1, 17] was 135.7 (76.46) ng/mL. For the same substance, the “Mean (SD) t½” value [1, 17] was 5.1 (1.33) hr, the “Median (range) Tmax” value [1, 17] was 4.0 (1.0–4.3) hr and the “Mean (SD) Rpred (predicted accumulation ratio)” value [1, 17] was 1.0 (0.06). For the same substance, the “Mean (SD) AUC0-24” value [1, 18] was 2,376.3 (2,064.06) ng•hr/mL, the “Mean (SD) Cmax” value [1, 18] was 266.9 (181.95) ng/mL and the “Mean (SD) t½” value [1, 18] was 8.5 (5.48) hr. For the same substance, the “Median (range) Tmax” value [1, 18] was 2.3 (1.0–3.1) hr, the “Mean (SD) Rpred (predicted accumulation ratio)” value [1, 18] was 1.2 (0.22) and the “Mean (SD) AUC0-24” value [1, 19] was 2,820.3 (2,070.39) ng•hr/mL. For the same substance, the “Mean (SD) Cmax” value [1, 19] was 351.9 (94.39) ng/mL, the “Mean (SD) t½” value [1, 19] was 8.1 (4.54) hr and the “Median (range) Tmax” value [1, 19] was 2.0 (1.0–4.0) hr. For the same substance, the “Mean (SD) Rpred (predicted accumulation ratio)” value [1, 19] was 1.2 (0.21), the “Mean (SD) AUC0-24” value [1, 20] was 2,274.0 (666.44) ng•hr/mL and the “Mean (SD) Cmax” value [1, 20] was 251.9 (119.68) ng/mL. The “Mean (SD) t½” value [1, 20] was 9.5 (2.57) hr, the “Median (range) Tmax” value [1, 20] was 3.0 (3.0–4.0) hr and the “Mean (SD) Rpred (predicted accumulation ratio)” value [1, 20] was 1.2 (0.11). For the same substance, the “Mean (SD) AUC0-24” value [1, 21] was 3,938.7 (1,965.70) ng•hr/mL, the “Mean (SD) Cmax” value [1, 21] was 444.2 (149.44) ng/mL and the “Mean (SD) t½” value [1, 21] was 8.1 (2.19) hr. The “Median (range) Tmax” value [1, 21] was 4.0 (3.0–4.1) hr, the “Mean (SD) Rpred (predicted accumulation ratio)” value [1, 21] was 1.2 (0.10) and the “Mean (SD) AUC0-24” value [1, 22] was 5,767.0 (0) ng•hr/mL. The “Mean (SD) Cmax” value [1, 22] was 751.2 (41.49) ng/mL, the “Median (range) Tmax” value [1, 22] was 5.0 (2.0–8.0) hr and the “Complete or partial response (RECIST)” value ([2]; all cohorts) was “no enrolled patients had complete or partial response”. For the same substance, the “Frequency of stable disease” value ([2]; cohorts receiving ≤ 55.0 mg/m^2 (11 of 29 patients)) was 37.9%, the “Frequency of stable disease” value ([2]; cohorts receiving ≥ 73.0 mg/m^2 (8 of 14 patients)) was 57.1% and the “Patients with stable disease at ≥ 6 weeks” value ([2]; intent-to-treat population (19 of 43 patients)) was 44%. The “Patients with disease progression” value [2, 23] was 18 patients, the “Patients with stable disease at ≥ 6 weeks” value [2, 23] was 51% and the IC50 (proto-oncogene c-SRC) was 37 nM.
